{"source": "patent US10487219B2", "about": "“Method and compositions for cleaning cooking range exhaust systems” (NOVAPHARM RESEARCH (AUSTRALIA) PTY LTD, priority 2015, dated 2019)", "data": [{"experiment": "Biocide migration test: biocide in strippable PV Acetate emulsion coating, film coated with cooking oil for 24 hrs, oil tested for presence of biocide", "type": "physicochemical", "settings": "dry film in situ, oily deposits", "experimental": "(§1) Initially biocides were selected for trial on the basis that they would be innocuous in a food preparation area. Many of those initially tested are food grade or similar low toxicity biocides. Biocides were tested by incorporating the biocide in the strippable PV Acetate emulsion coating formulation, coating a film of the coating with cooking oil and leaving it in place for 24 hrs and then testing the oil for presence of Biocide. The leaching of the biocide into the oil is considered a proxy for the ability of the film to prevent microbial degradation of the oily material coated thereon.", "values": [{"smiles": "CCCCOC(=O)c1ccc(O)cc1", "note": "[butyl parabens, Butyl Parabens]", "Suitability as oil soluble biocide leaching from the dry film into oils deposited on the film": "satisfactory"}, {"smiles": "OCCOc1ccccc1", "note": "[phenoxyethanol, Phenoxyethanol]", "Suitability as oil soluble biocide leaching from the dry film into oils deposited on the film": "ineffective"}]}, {"experiment": "Biocide migration test: biocide in strippable PV Acetate emulsion coating, film coated with cooking oil for 24 hrs, oil tested for presence of biocide", "type": "physicochemical", "settings": "strippable PV Acetate emulsion coating film coated with cooking oil, 24 hrs, oil tested for presence of biocide", "experimental": "as §1", "values": [{"smiles": "CCCCOC(=O)c1ccccc1", "note": "[butyl benzoate]", "Leaching (migration) of the biocide from the coating into the oil": "passed the above test"}, {"smiles": "CCCOC(=O)c1ccccc1", "note": "[propyl benzoate]", "Leaching (migration) of the biocide from the coating into the oil": "passed the above test"}, {"smiles": "CCOC(=O)c1ccccc1", "note": "[ethylbenzoate]", "Leaching (migration) of the biocide from the coating into the oil": "passed the above test"}, {"smiles": "COC(=O)c1ccccc1", "note": "[methyl benzoate]", "Leaching (migration) of the biocide from the coating into the oil": "passed the above test"}]}]}
